Molecules are shown by their SMILES.

The target in the test is Neuraminidase (NA) of A/Bethesda/956/2006, NA-R292K (Influenza A virus, UniProt F1KL32, R292K). In kind it is biochemical, influenza A(H3N2) virus.

For the compound `CCC(CC)[C@H](NC(C)=O)[C@@H]1[C@H](O)[C@@H](C(=O)O)C[C@H]1N=C(N)N` [Peramivir, peramivir], the “Fold-Difference of IC50 compared with the IC50 of WT virus” value was 16.27 ± 0.89 (71) fold. In addition, the IC50 (usually the concentration that gives 50% inhibition) (read-out: IC50, nM ± SD) was determined as 16.3 nM.

These data come from paper PMC6943751 (The Journal of infectious diseases, 2014).
